One assay deals with T1, PfPFT (Plasmodium falciparum, UniProt Q8I503+Q8IHP6).
T1 sequence (Q8I503 1-521): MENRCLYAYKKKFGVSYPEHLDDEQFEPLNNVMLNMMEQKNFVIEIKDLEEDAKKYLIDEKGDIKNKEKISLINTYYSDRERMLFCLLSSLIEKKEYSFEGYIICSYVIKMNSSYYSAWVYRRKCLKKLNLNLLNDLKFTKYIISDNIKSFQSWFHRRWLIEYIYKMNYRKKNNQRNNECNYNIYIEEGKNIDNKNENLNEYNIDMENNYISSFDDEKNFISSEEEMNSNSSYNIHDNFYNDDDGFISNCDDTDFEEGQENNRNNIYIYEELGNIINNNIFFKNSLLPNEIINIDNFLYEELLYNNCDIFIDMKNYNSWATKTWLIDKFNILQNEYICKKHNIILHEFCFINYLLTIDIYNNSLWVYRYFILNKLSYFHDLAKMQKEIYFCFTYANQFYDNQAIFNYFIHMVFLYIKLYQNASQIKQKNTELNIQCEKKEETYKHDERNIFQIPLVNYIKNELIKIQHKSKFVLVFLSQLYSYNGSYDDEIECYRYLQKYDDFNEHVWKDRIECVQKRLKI
T1 sequence (Q8IHP6 1-923): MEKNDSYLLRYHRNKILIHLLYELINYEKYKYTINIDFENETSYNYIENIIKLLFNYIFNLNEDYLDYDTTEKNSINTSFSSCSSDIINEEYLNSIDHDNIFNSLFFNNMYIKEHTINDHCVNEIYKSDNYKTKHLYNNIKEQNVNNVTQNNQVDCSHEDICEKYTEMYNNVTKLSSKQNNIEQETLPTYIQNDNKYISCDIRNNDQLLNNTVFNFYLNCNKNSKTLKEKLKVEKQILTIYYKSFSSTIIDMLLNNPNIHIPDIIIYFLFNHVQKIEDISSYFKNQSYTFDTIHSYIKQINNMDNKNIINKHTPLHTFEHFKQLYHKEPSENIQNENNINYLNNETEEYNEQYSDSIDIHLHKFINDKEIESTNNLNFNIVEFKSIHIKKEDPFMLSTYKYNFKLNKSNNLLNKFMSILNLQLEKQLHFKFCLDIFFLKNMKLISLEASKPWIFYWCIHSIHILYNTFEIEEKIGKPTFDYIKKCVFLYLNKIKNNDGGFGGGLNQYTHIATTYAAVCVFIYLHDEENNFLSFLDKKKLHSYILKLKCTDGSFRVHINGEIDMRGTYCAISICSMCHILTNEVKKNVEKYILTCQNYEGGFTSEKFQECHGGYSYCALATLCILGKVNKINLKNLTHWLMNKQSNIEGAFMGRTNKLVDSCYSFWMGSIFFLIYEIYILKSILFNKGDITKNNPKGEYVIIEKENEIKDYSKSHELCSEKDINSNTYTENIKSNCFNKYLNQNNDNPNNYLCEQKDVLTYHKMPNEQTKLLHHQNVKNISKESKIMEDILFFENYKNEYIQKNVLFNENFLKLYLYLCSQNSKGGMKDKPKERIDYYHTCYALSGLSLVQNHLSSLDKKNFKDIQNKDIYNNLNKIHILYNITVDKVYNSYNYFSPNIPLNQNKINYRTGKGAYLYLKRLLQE
Kind of assay: PfPFT inhibition, scintillation proximity assay with partially purified PfPFT. It counts as biochemical. To be noted: for inhibition at 0.05 µM: read-out: % Inhibition of PfPFT at 50 nM, inhibitor at 50 nM; for inhibition at 0.005 µM: read-out: % Inhibition of PfPFT at 5 nM, inhibitor at 5 nM. In general terms: SPA uses beads or plates that emit light when radiolabelled molecules are held near them.

The next assay has as its system P. falciparum 3D7. Nature of the assay: P. falciparum ED50 determination, [3H]-hypoxanthine incorporation, strain 3D7. In kind it is cell-based, Plasmodium falciparum. To be noted: concentration decreasing hypoxanthine incorporation into parasites twofold, read-out: ED50 3D7. The source says: (§1) Plasmodium strains. The P. falciparum strains used in this study were 3D7 (Netherlands, sensitive) provided by Dr. Pradipsinh Rathod from the University of Washington and K1 (Thailand, ChQ-R, Pyr-R) obtained from the MR4Unit of the American Type Culture Collection (ATCC, Manassas, Va.).
(§2) P. falciparum culture. Strains of P. falciparum were sustained in vitro based on experimental techniques as described by Trager and Jensen.^26 Cultures were maintained in RPMI-1640 (Sigma, St. Louis, […].) with 2 mM L-glutamine, 25 mM HEPES, 33 mM NaHCO3, 20 μg/ml gentamicin sulfate and 20% (v/v) heat-inactivated human plasma type A+ (R^P-20P). Type A+ erythrocytes were obtained from lab donors, washed three times with RPMI, re-suspended in 50% RPMI, and stored at 4° C. Parasites were grown in 10 mL of a 2% hematocrit/RP-20P (v/v) in 50-mL flasks under a 5% CO2, 5% O2, and 90% N2 atmosphere.
(§3) P. falciparum ED50 determination. One […]L of PFTI dissolved in DMSO was added to each well of a 96-well plate followed by the addition of 200 μL of P. falciparum culture at parasitemia and hematocrit of 0.5%. Plates were flushed with 5% CO2, 5% O2, and 90% N2 then incubated at 37° C. for 48 hr. [8-^3H]-hypoxanthine (0.3 μCi, 20 Ci/mmol, American Radiolabeled Chemicals) in 30 μL RP-20P was added to cultures and incubated for an additional 24 hours. Cells were harvested onto filter mats by a Multiharvester (Skatron, Sunnyvale, Calif.) and the radioactivity incorporated into the parasites was counted on a β-scintillation counter. The background level detected with uninfected erythrocytes was subtracted from the data. The ^3H-incorporation into infected RBCs with 1 μL DMSO vehicle alone represents 100% malaria growth. ED50 values were determined by linear regression analysis of the plots of ^3H-hypoxanthine incorporation versus concentration of compound.

A further assay concerns P. falciparum K1. Kind of assay: P. falciparum ED50 determination, [3H]-hypoxanthine incorporation, strain K1. It counts as cell-based, Plasmodium falciparum. To be noted: concentration decreasing hypoxanthine incorporation into parasites twofold, read-out: ED50 K1.
Excerpt: as §1, §2, §3

Setting [1] is: Plasmodium falciparum, 3D7, strain 3D7.
The mark [2] stands for this setting: Plasmodium falciparum, K1, strain K1.

What is called inhibition is the change of the read-out against control, counted positive when it falls.

Like-named read-outs stand apart in the source and are kept apart here.

Take `Cn1cnc(S(=O)(=O)N(CCN(Cc2cnc[nH]2)c2ccccc2)Cc2ccccc2)c1` [Compound 3c, 1-Methyl-1H-imidazole-4-sulfonic acid benzyl-{2-[(3H-imidazol-4-ylmethyl)-phenyl-amino]-ethyl}-amide]: the inhibition at 0.05 µM on PfPFT stood at 32%.
The same measure, in the same setting: then `Cc1ccc(CS(=O)(=O)N(CCN(Cc2cnc[nH]2)c2ccccc2)Cc2ccccc2)cc1` [Compound 3d, N-Benzyl-N-{2-[(3H-imidazol-4-ylmethyl)-phenyl-amino]-ethyl}-C-p-tolyl-methanesulfonamide], with 3%; and `O=S(=O)(c1ccc2ccccc2c1)N(CCN(Cc1cnc[nH]1)c1ccccc1)Cc1ccccc1` [Compound 3e, Naphthalene-2-sulfonic acid benzyl-{2-[(3H-imidazol-4-ylmethyl)-phenyl-amino]-ethyl}-amide], with 0%.
Consider `O=S(=O)(c1cccc2cccnc12)N(CCN(Cc1cnc[nH]1)c1ccccc1)Cc1ccccc1` [Compound 3f, Quinoline-8-sulfonic acid benzyl-{2-[(3H-imidazol-4-ylmethyl)-phenyl-amino]-ethyl}-amide], for which the inhibition at 0.05 µM at PfPFT is 0%.
`CN(C)c1cccc2c(S(=O)(=O)N(CCN(Cc3cnc[nH]3)c3ccccc3)Cc3ccccc3)cccc12` [Compound 3g, 5-Dimethylamino-naphthalene-1-sulfonic acid benzyl-{2-[(3H-imidazol-4-ylmethyl)-phenyl-amino]-ethyl}-amide]: the inhibition at 0.05 µM on PfPFT turned out to be 0%.
On the same count and under the same terms, then `Cn1cnc(S(=O)(=O)N(CCN(Cc2cnc[nH]2)c2ccc(Br)cc2)Cc2ccccc2)c1` [Compound 8a, 1-Methyl-1H-imidazole-4-sulfonic acid benzyl-{2-[(4-bromo-phenyl)-(3H-imidazol-4-ylmethyl)-amino]-ethyl}-amide], with 80%.
In the case of `Cn1cnc(S(=O)(=O)N(CCN(Cc2cncn2C)c2ccc(C#N)cc2)Cc2cccnc2)c1` [Compound 8ab, 1-Methyl-1H-imidazole-4-sulfonic acid {2-[(4-cyano-phenyl)-(3-methyl-3H-imidazol-4-ylmethyl)-amino]-ethyl}-pyridin-3-ylmethyl-amide], at PfPFT, the inhibition at 0.005 µM was found to be 18% and the inhibition at 0.05 µM was 74%. The EC50 in the assay on P. falciparum 3D7 (setting [1]) worked out at 2.8 µM. Moreover, the EC50 in the assay on P. falciparum K1 (setting [2]) is 4.25 µM.
In the same order, the values of `Cn1cnc(S(=O)(=O)N(CCN(Cc2cncn2C)c2ccc(C#N)cc2)Cc2ccncc2)c1` [Compound 8ac, 1-Methyl-1H-imidazole-4-sulfonic acid {2-[(4-cyano-phenyl)-(3-methyl-3H-imidazol-4-ylmethyl)-amino]-ethyl}-pyridin-4-ylmethyl-amide] are 22%, 62%, 3.7 µM and 5 µM.
As for `Cn1cnc(S(=O)(=O)N(CCN(Cc2cncn2C)c2ccc(C#N)cc2)Cc2cccc(C#N)c2)c1` [Compound 8ad, 1-Methyl-1H-imidazole-4-sulfonic acid (3-cyano-benzyl)-{2-[(4-cyano-phenyl)-(3-methyl-3H-imidazol-4-ylmethyl)-amino]-ethyl}-amidem-cyanobenzyl], the “% Inhibition of PfPFT at 5 nM” value on PfPFT (inhibitor at 5 nM) came out at 45%. Further, at PfPFT (inhibitor at 50 nM), the “% Inhibition of PfPFT at 50 nM” value is 89%. Further, the EC50 with P. falciparum 3D7 (strain 3D7) is 0.35 µM; in the assay on P. falciparum K1 (strain K1), 1.8 µM.
With `Cn1cnc(S(=O)(=O)N(CCN(Cc2cncn2C)c2ccc(C#N)cc2)Cc2cccc(-c3ccccc3)c2)c1` [Compound 8af, 1-Methyl-1H-imidazole-4-sulfonic acid biphenyl-3-ylmethyl-{2-[(4-cyano-phenyl)-(3-methyl-3H-imidazol-4-ylmethyl)-amino]-ethyl}-amide], on PfPFT, the inhibition at 0.005 µM stood at 56% and the inhibition at 0.05 µM turned out to be 93%. Besides, in the assay on P. falciparum 3D7 (setting [1]), the EC50 was 2.4 µM. Also, the EC50 in the assay with P. falciparum K1 (setting [2]) came out at 3.25 µM.
